# Read-outs that look alike come from different tables or passages of the source.
# What was measured:
# [1] = test system: A. baumannii CDC-83 (NDM-1, OXA-23, 69); assay: MIC, broth microdilution; assay type: cell-based, Acinetobacter baumannii; conditions: agent alone
# [2] = test system: Fusobacterium varium ATCC 27725; assay: MIC, agar dilution, reference strains of anaerobic bacteria; assay type: cell-based; conditions: ATCC27725
# [3] = target: KPC-3 (Klebsiella pneumoniae, UniProt Q9F663, H272Y); assay: Ki app determination (Waley's method)
# [4] = test system: Finegoldia magna ATCC 29328; assay: MIC, agar dilution, reference strains of anaerobic bacteria; assay type: cell-based; conditions: ATCC29328
# [5] = target: CTX-Ms and PDC-11; assay: Ki app determination, range over enzymes; conditions: read-out: Ki app values, range; range over CTX-Ms and PDC-11
# [6] = test system: Peptoniphilus asaccharolyticus ATCC 14963; assay: MIC, agar dilution, reference strains of anaerobic bacteria; assay type: cell-based; conditions: ATCC14963
# [7] = test system: Prevotella melaninogenica KUB3005; assay: as above; assay type: cell-based
# [8] = test system: 20 anaerobic strains (including Clostridium perfringens, Atopobium rimae, Bacteroides spp., and Prevotella spp.); assay type: cell-based
# [9] = target: NDM-4 (Klebsiella pneumoniae, UniProt C7C422, M154L); assay: Ki app determination (Waley's method)
# [10] = test system: Bacteroides fragilis KUB2983; assay: MIC, agar dilution, reference strains of anaerobic bacteria; assay type: cell-based
# [11] = target: NDM-5 (Klebsiella pneumoniae, UniProt C7C422, M154L/V88L); assay: Ki app determination (Waley's method)
# [12] = target: CTX-M-27 (Escherichia coli, UniProt Q840M4); assay: Ki app determination (Waley's method)
# [13] = target: KPC-2 (Klebsiella pneumoniae, UniProt Q9F663); assay: Ki app determination (Waley's method)
# [14] = test system: Propionibacterium acnes ATCC 11827; assay: MIC, agar dilution, reference strains of anaerobic bacteria; assay type: cell-based; conditions: Cutibacterium acnes, ATCC11827
# [15] = target: CTX-M-15 (Escherichia coli, UniProt Q9EXV5); assay: Ki app determination (Waley's method)
# [16] = target: OXA-65 (Acinetobacter baumannii, UniProt Q58XD3); assay: Ki app determination (Waley's method)
# [17] = test system: Bacteroides thetaiotaomicron ATCC 29741; assay: MIC, agar dilution, reference strains of anaerobic bacteria; assay type: cell-based; conditions: ATCC29741
# [18] = test system: Bulleidia extructa KUB3013; assay: as above; assay type: cell-based
# [19] = test system: Olsenella uli KUB3012; assay: as above; assay type: cell-based
# [20] = target: class A carbapenemase KPCs; assay: Ki app determination, range over enzymes; conditions: read-out: Ki app values, range
# [21] = test system: Acinetobacter baumannii (46); assay: MIC, broth microdilution; assay type: cell-based
# [22] = test system: P. aeruginosa CDC-110 (VIM-2); assay: MIC, broth microdilution; assay type: cell-based; conditions: Pseudomonas aeruginosa, agent alone
# [23] = test system: P. aeruginosa CDC-110 (VIM-2); assay: Lethal mouse model of systemic infection; conditions: Pseudomonas aeruginosa, in Mus musculus, sc, read-out: ED50 of MEM (95% confidence intervals)
# [24] = test system: Cefepime/taniborbactam-nonsusceptible Enterobacterales with metallo-carbapenemases (25); assay: MIC, broth microdilution; assay type: cell-based; conditions: CDC AR Bank
# [25] = test system: Carbapenemase-producing P. aeruginosa (7); assay: MIC and MBC testing; assay type: cell-based, Pseudomonas aeruginosa; conditions: 7 carbapenemase-producing P. aeruginosa; fixed BLI concentration (μg/mL) in label
# [26] = test system: P. aeruginosa CDC-90 (KPC-5); assay: MIC, broth microdilution; assay type: cell-based; conditions: Pseudomonas aeruginosa, agent alone
# [27] = test system: A. baumannii CDC-35 (OXA-66 and OXA-72 producer); assay: Neutropenic murine thigh infection model; conditions: MEM 50 mg/kg q3h sc for 24 h
# [28] = test system: E. coli ATCC BAA-2469 (NDM-1); assay: Lethal mouse model of systemic infection; conditions: Escherichia coli, ATCCBAA2469, in Mus musculus, sc
# [29] = CLSI breakpoints, marked c: breakpoints for β-lactam alone
# [30] = fixed concentration (μg/mL) in label
compound,measurement,setting,value
"CC(C)(O/N=C(\C(=O)N[C@@H]1C(=O)N2C(C(=O)[O-])=C(C[N+]3(CCNC(=O)c4ccc(O)c(O)c4Cl)CCCC3)CS[C@H]12)c1csc(N)n1)C(=O)O [FDC, cefiderocol]",MIC,[1],16 µg/mL
"N[C@@H](C(=O)N1CC(Oc2ccc3c(c2C(=O)O)OB(O)CC3)C1)c1c[nH]cn1 [KSP-1007, 7-({1-[(2R)-2-amino-2-(1H-imidazol-4-yl)acetyl]azetidin-3-yl}oxy)-2-hydroxy-3,4-dihydro-2H-1,2-benzoxaborinine-8-carboxylic acid]",MIC,[2],> 256 µg/mL
same,Ki,[3],2.19 ± 0.687 nM
same,MIC,[4],128 µg/mL
same,Ki,[5],0.0664 to 0.79 nM
same,MIC,[6],32 µg/mL
same,MIC,[7],4 µg/mL
same,"MICs, range",[8],2 to 256 µg/mL
same,Ki,[9],153 ± 45.2 nM
same,MIC,[10],16 µg/mL
same,Ki,[11],31.6 ± 12.3 nM
same,Ki,[12],0.159 ± 0.0228 nM
same,Ki,[13],1.46 ± 0.0574 nM
same,MIC,[14],32 µg/mL
same,Ki,[15],0.0664 ± 0.015 nM
same,Ki,[16],5.44 ± 1.21 nM
same,MIC,[17],64 µg/mL
same,MIC,[18],32 µg/mL
same,MIC,[19],64 µg/mL
same,Ki,[20],0.836 to 2.19 nM
"C[C@@H](O)[C@H]1C(=O)N2C(C(=O)O)=C(S[C@@H]3CN[C@H](C(=O)N(C)C)C3)[C@H](C)[C@H]12 [MEM, meropenem]",CLSI MIC interpretation I (intermediate),[21]; [29],0%
same,CLSI MIC interpretation R (resistant),[21]; [29],100%
same,CLSI MIC interpretation S (susceptible),[21]; [29],0%
same,MIC50,[21]; [30],32 µg/mL
same,MIC,[22],64 µg/mL
same,ED50,[23],218 mg/kg
same,CLSI MIC interpretation I (intermediate),[24]; [29],0%
same,CLSI MIC interpretation R (resistant),[24]; [29],96%
same,CLSI MIC interpretation S (susceptible),[24]; [29],4%
same,MIC50,[24]; [30],32 µg/mL
same,MIC90,[24]; [30],> 32 µg/mL
same,MBC range,[25],64 to 256 µg/mL
same,MIC Range,[25],64 to 256 µg/mL
same,MIC,[26],32 µg/mL
same,bacterial growth in the thigh compared with the control group,[27],no significant reduction in bacterial growth
same,ED50,"[28]; read-out: ED50 of MEM (95% confidence intervals), E. coli ATCC BAA-2469, Experiment 1, single sc dose, survival day 7, dose ratio in label",103 mg/kg
same,ED50,"[28]; read-out: ED50 of MEM (95% confidence intervals), E. coli ATCC BAA-2469, Experiment 2, single sc dose, survival day 7, dose ratio in label",118 mg/kg

# From PMC11620503 (Antimicrobial Agents and Chemotherapy, 2024)
